Reference: patent US6645957B2, “Cyclic amide compound” (Kowa Co., Ltd., priority 1998, dated 2003)
Where a name gives a salt, the structure may show the parent alone.

System: production of IgE antibody
Assay: Evaluation of inhibitory effect on production of IgE antibody (mouse splenic B cells, LPS + IL-4, ELISA)
Assay type: cell-based
Settings: B-cell, 168 h; test agent 10^−6 M; mouse (Balb/C) B cells cultured with LPS then mouse IL-4 for 7 days; IgE in culture supernatant by ELISA
Method: A spleen was enucleated from a mouse (Balb/C, male, aged 8 weeks) and shredded in 0.3% BSA/HBSS to prepare single cells by means of a 200-mesh screen. Further, the single cells were hemolyzed by 0.75% ammonium chloride-17 mM Tris solution to prepare a splenocyte suspension (1×10^7/ml) using RPMI 1640 medium/25 mM HEPES/0.3% BSA. After the suspension was reacted with a rat anti-mouse Thy-1,2 monoclonal antibody (product of Cedarlane Co.) at 4° C. for 1 hour, the reaction mixture was centrifuged, and the sediment cells were suspended again (1×10^7/ml, RPMI/HEPES/BSA). After the suspension was then reacted with a low-cytotoxic rabbit complement (product of Cedarlane Co.) at 37° C. for 1 hour, killed cells were removed by specific gravity centrifugation using lympholyte M (product of Cedarlane Co.) to obtain a B cell fraction as viable cells.
After B cells (10^5/0.2 ml/well) were cultured for a day together with LPS (E. coli 026:B6, product of DIFCO Co.) using a 96-well plate, mouse IL-4 (product of Genzyme Co.) was added to conduct culture further for 7 days.
Each test agent was added on the first day of the culture, and the amount of IgE in a culture supernatant was measured by ELISA after the culture, thereby calculating out the inhibitory effect of the agent on the production of an IgE antibody.

| SMILES | inhibition at 1 µM [%] |
| --- | --- |
| COc1cc(/C=C/C=C/C(=O)N2CCN(CCCN3CCN(C(=O)/C=C/C=C/c4cc(OC)c(OC)c(OC)c4)CC3)CC2)cc(OC)c1OC [Example 3, 1,3-bis[4-[(E,E)-5-(3,4,5-Trimethoxyphenyl)-2,4-pentadienoyl]-1-piperazinyl]propane Dihydrochloride] | 100 |
| CSc1ncccc1/C=C/C=C/C(=O)N1CCN(CCCCCCCCN2CCN(C(=O)/C=C/C=C/c3cccnc3SC)CC2)CC1 [Example 13, 1,8-bis[4-[(E,E)-5-(2-Methylthio-3-pyridyl)-2,4-pentadienoyl]-1-piperazinyl]octane Dihydrochloride] | 95 |
| COc1cc2c(cc1OC)C(C)(C)C(/C=C/C(=O)N1CCC(CCCC3CCN(C(=O)/C=C/C4=Cc5cc(OC)c(OC)cc5C4(C)C)CC3)CC1)=C2 [Example 27, 1,3-bis[1-[(E)-3-(5,6-Dimethoxy-1,1-dimethyl-2-indenyl)-2-propenoyl]-4-piperidinyl]propane] | 100 |
| COc1cc(C#C/C=C/C(=O)N2CCC(CC(CC3CCN(C(=O)/C=C/C#Cc4cc(OC)c(OC)c(OC)c4)CC3)CN(C)C)CC2)cc(OC)c1OC [Example 33, 1,3-bis[1-[(E)-5-(3,4,5-Trimethoxyphenyl)-2-penten-4-ynoyl]-4-piperidinyl]-2-[(dimethylamino)methyl]propane Hydrochloride] | 100 |
| COc1cc(C#C/C=C/C(=O)N2CCN(CCCN3CCN(C(=O)/C=C/C#Cc4cc(OC)c(OC)c(OC)c4)CC3)CC2)cc(OC)c1OC [Example 6, 1,3-bis[4-[(E)-5-(3,4,5-Trimethoxyphenyl)-2-penten-4-ynoyl]-1-piperazinyl]propane Dihydrochloride] | 95 |
| CC(C)(C)c1ccc(/C=C/C=C/C(=O)N2CCN(CCCCCCCCN3CCN(C(=O)/C=C/C=C/c4ccc(C(C)(C)C)cc4)CC3)CC2)cc1 [Example 12, 1,8-bis[4-[(E,E)-5-(4-tert-Butylphenyl)-2,4-pentadienoyl]-1-piperazinyl]octane Dihydrochloride] | 90 |
| COc1ccc(C(=O)N2CCC(CN3CCN(CC4CCN(C(=O)c5ccc(OC)c(-c6cc(OC)c(OC)c(OC)c6)c5)CC4)CC3)CC2)cc1-c1cc(OC)c(OC)c(OC)c1 [Example 40, 1,4-bis[[1-[4-Methoxy-3-(3,4,5-trimethoxyphenyl)benzoyl]-4-piperidinyl]methyl]piperazine Dihydrochloride] | 75 |
| COc1cc(-c2ccc(C(=O)N3CCN(CCCN4CCN(C(=O)c5ccc(-c6cc(OC)c(OC)c(OC)c6)cc5)CC4)CC3)cc2)cc(OC)c1OC [Example 5, 1,3-bis[4-[4-(3,4,5-Trimethoxyphenyl)-benzoyl]-1-piperazinyl]propane Dihydrochloride] | 95 |
| COc1cc(-c2ccc(C(=O)N3CCC(N(C)CCN(C)C4CCN(C(=O)c5ccc(-c6cc(OC)c(OC)c(OC)c6)cc5)CC4)CC3)cc2)cc(OC)c1OC [Example 37, N,N′-bis[1-[4-(3,4,5-Trimethoxyphenyl)benzoyl]-4-piperidinyl]-N,N′-dimethylethylenediamine Dihydrochloride] | 100 |
| COc1cc2ccc(/C=C/C(=O)N3CCC(CN(C)CC4CCN(C(=O)/C=C/c5ccc6cc(OC)c(OC)c(OC)c6c5)CC4)CC3)cc2c(OC)c1OC [Example 36, N,N-bis[[1-[(E)-3-(6,7,8-Trimethoxy-2-naphthyl)-2-propenoyl]-4-piperidinyl]methyl]methylamine Hydrochloride] | 60 |
| O=C(/C=C/c1ccc2ccccc2c1)N1CCN(Cc2cccc(CN3CCN(C(=O)/C=C/c4ccc5ccccc5c4)CC3)n2)CC1 [Example 20, 2,6-bis[[4-[(E)-3-(2-Naphthyl)-2-propenoyl]-1-piperazinyl]methyl]pyridine] | 75 |
| COc1cc(-c2cc(C(=O)N3CCC(CC(CC4CCN(C(=O)c5ccc(C)c(-c6cc(OC)c(OC)c(OC)c6)c5)CC4)N(C)C)CC3)ccc2C)cc(OC)c1OC [Example 30, 1,3-bis[1-[4-Methyl-3-(3,4,5-trimethoxyphenyl)benzoyl]-4-piperidinyl]-2-(dimethylamino)propane Hydrochloride] | 100 |
| COc1cc(-c2ccc(C(=O)N3CCN(Cc4ccc(CN5CCN(C(=O)c6ccc(-c7cc(OC)c(OC)c(OC)c7)cc6)CC5)cc4)CC3)cc2)cc(OC)c1OC [Example 16, 1,4-bis[[4-[4-(3,4,5-Trimethoxyphenyl)benzoyl]-1-piperazinyl]methyl]benzene Dihydrochloride] | 65 |
| COc1cc(-c2ccc(C(=O)N3CCCN(CCCN4CCCN(C(=O)c5ccc(-c6cc(OC)c(OC)c(OC)c6)cc5)CC4)CC3)cc2)cc(OC)c1OC [Example 23, 1,1′-Trimethylenedi[4-[4-(3,4,5-trimethoxyphenyl)benzoyl]hexahydro-1,4-diazepine]dihydrochloride] | 85 |
